Data on 25 molecules can be found in US11267814B2, “Compounds for bone growth” (OsteoQC Inc., priority 2013, dated 2022).

Bounds are passed on as bounds.

In one assay the target is T1, sclerostin (Homo sapiens, UniProt Q9BQB4).
T1 construct: host or cells: human embryonic cells (reporter cells)
T1 sequence (Q9BQB4 24-213): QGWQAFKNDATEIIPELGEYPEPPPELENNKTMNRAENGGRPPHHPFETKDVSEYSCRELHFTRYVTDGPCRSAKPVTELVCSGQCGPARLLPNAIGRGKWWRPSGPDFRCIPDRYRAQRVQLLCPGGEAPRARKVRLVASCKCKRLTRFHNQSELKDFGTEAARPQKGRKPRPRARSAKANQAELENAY
Description: Modulation of sclerostin/Wnt activity (sclerostin inhibition assay): restoring Wnt3a signaling in the presence of sclerostin. Type of assay: cell-based. Particulars: for Sclerostin Inhibition Assay; improvement over sclerostin alone.: IC100 class, Wnt3a signaling in human embryonic cells in presence of sclerostin.

The test system of assay [1] is MC3T3-E1 (mouse calvarial) osteoblast cells. In words: Rescue of sclerostin inhibition of mineralization (total calcium). Type of assay: cell-based. Particulars: calcium concentration; for IC100: Mus musculus, MC3T3-E1, read-out: Sclerostin Inhibition of Mineralization, improvement over sclerostin alone. How it is done: Mineralization (crystalline calcium phosphate formation) represents an in vitro model of bone formation. […] Following the protocol described in Li et al., Compounds were assayed for their ability to rescue the inhibition of mineralization by sclerostin in MC3T3 osteoblast cells.

Another assay relates to MC3T3 osteoblast cells. Description: Osteocalcin (OCN) secretion, bone formation marker, ELISA. In kind it is cell-based, mouse. The following applies: for IC100: Mus musculus. How it is done:
Bone formation can also be assayed in vitro or in vivo using a serum marker for bone formation, osteocalcin (OCN), available from Biomedical Tecnhnologies, Inc. (Stoughton, Mass.). Following the manufacturer's protocol for the mouse osteocalcin EIA kit (described at the website www.btiinc.com/page/cata2.html#mouse_osteocalcin), bone formation in MC3T3 osteoblast cells was assayed by measuring the concentration of OCN.
Background: In an ELISA, binding on a coated surface is turned into a signal by an enzyme label.

The mark [2] stands for this setting: IC100 class, MC3T3 osteoblast cells treated with sclerostin.
Where [3] appears, read: IC100 class, OCN secreted from MC3T3 osteoblast cells treated with sclerostin.
Setting [4] is: MC3T3 osteoblast cells, result in words.

In the case of `Cc1nccc2c1[nH]c1cc(OC(C)(F)F)ccc12` [Example 43, 7-(1,1-difluoroethoxy)-1-methyl-9H-pyrido[3,4-b]indole], the “Sclerostin Inhibition Assay; improvement over sclerostin alone.” value on sclerostin is given as “++ (++ indicates an IC100 < 10 μM)”. The IC100 (in assay [1] (setting [2]); in the assay with MC3T3 osteoblast cells (setting [3])) was less than 10 µM each time.

`COc1ccc2c3ccnc(C(F)(F)F)c3n(CC(C)N3CCOCC3)c2c1` (stereo not drawn) [Example 28, 4-(1-(7-methoxy-1-(trifluoromethyl)-9H-pyrido[3,4-b]indol-9-yl)propan-2-yl)morpholine]: the “Sclerostin Inhibition Assay; improvement over sclerostin alone.” value at sclerostin is recorded as “++ (++ indicates an IC100 < 10 μM)”. Besides, the IC100 (in assay [1] (setting [2]); in the assay on MC3T3 osteoblast cells (setting [3])) was less than 10 µM in each case.

Turning to `Cc1nc(O)cc2c1[nH]c1cc(O)ccc12` [Example 20, 1-methyl-9H-pyrido[3,4-b]indole-3,7-diol], at sclerostin, the “Sclerostin Inhibition Assay; improvement over sclerostin alone.” value was “+ (+ indicates an IC100 > 10 μM)”. In addition, the IC100 (in assay [1] (setting [2]); in the assay on MC3T3 osteoblast cells (setting [3])) was greater than 10 µM in each case.

With `COc1ccc2c3ccnc(C(F)(F)F)c3n(CCNCCO)c2c1` [Example 34, 2-((2-(7-methoxy-1-(trifluoromethyl)-9H-pyrido[3,4-b]indol-9-yl)ethyl)amino)ethanol], the “Sclerostin Inhibition Assay; improvement over sclerostin alone.” value at sclerostin was “++ (++ indicates an IC100 < 10 μM)”. The IC100 (in assay [1] (setting [2]); in the assay with MC3T3 osteoblast cells (setting [3])) was less than 10 µM in each case.

On to `Oc1ccc2c(c1)[nH]c1c(C(F)(F)F)nccc12` [Example 23, 1-(trifluoromethyl)-9H-pyrido[3,4-b]indol-7-ol], for which, on sclerostin, the “Sclerostin Inhibition Assay; improvement over sclerostin alone.” value is “++ (++ indicates an IC100 < 10 μM)”. The IC100 (in assay [1] (setting [2]); in the assay on MC3T3 osteoblast cells (setting [3])) was less than 10 µM each time.

`Cc1nccc2c1[nH]c1cc(Cl)ccc12` [Example 44, 7-chloro-1-methyl-9H-pyrido[3,4-b]indole]: on sclerostin, the “Sclerostin Inhibition Assay; improvement over sclerostin alone.” value is listed as “++ (++ indicates an IC100 < 10 μM)”. Further, the IC100 (in assay [1] (setting [2]); in the assay on MC3T3 osteoblast cells (setting [3])) was less than 10 µM in each case.

`COc1ccc2c3cc(F)nc(C)c3n(CCN3CCCCC3)c2c1` [Example 39, 3-fluoro-7-methoxy-1-methyl-9-(2-(piperidin-1-yl)ethyl)-9H-pyrido[3,4-b]indole]: the “Sclerostin Inhibition Assay; improvement over sclerostin alone.” value on sclerostin was “++ (++ indicates an IC100 < 10 μM)”. Further, the IC100 (in assay [1] (setting [2]); with MC3T3 osteoblast cells (setting [3])) was less than 10 µM in each case.

Regarding `COc1ccc2c3ccnc(C)c3n(CCN3CCN(C(=O)OC(C)(C)C)CC3)c2c1` [Example 14, t-butyl 4-(2-(7-methoxy-1-methyl-9H-pyrido[3,4-b]indol-9-yl)ethyl) piperazine-1-carboxylate], the “Sclerostin Inhibition Assay; improvement over sclerostin alone.” value on sclerostin was “++ (++ indicates an IC100 < 10 μM)”. Further, the IC100 (in assay [1] (setting [2]); in the assay with MC3T3 osteoblast cells (setting [3])) was less than 10 µM throughout.

With `CCN(CC)CCCn1c2cc(OC)ccc2c2ccnc(C)c21` [Example 6, N,N-diethyl-3-(7-methoxy-1-methyl-9H-pyrido[3,4-b]indol-9-yl)propan-1-amine], the “Sclerostin Inhibition Assay; improvement over sclerostin alone.” value on sclerostin is recorded as “++ (++ indicates an IC100 < 10 μM)”. Moreover, the IC100 (in assay [1] (setting [2]); in the assay on MC3T3 osteoblast cells (setting [3])) was less than 10 µM each time.

Take `COc1ccc2c3ccnc(C)c3n(C(C)CN(C)C)c2c1` (stereo not drawn) [Example 5, 2-(7-methoxy-1-methyl-9H-pyrido[3,4-b]indol-9-yl)-N,N-dimethylpropan-1-amine]: the “Sclerostin Inhibition Assay; improvement over sclerostin alone.” value on sclerostin was “++ (++ indicates an IC100 < 10 μM)”. In addition, the IC100 (in assay [1] (setting [2]); in the assay on MC3T3 osteoblast cells (setting [3])) was less than 10 µM each time.

`Cc1nccc2c1[nH]c1cc(OCC3CC3)ccc12` [Example 46, 7-(cyclopropylmethoxy)-1-methyl-9H-pyrido[3,4-b]indole]: the “Sclerostin Inhibition Assay; improvement over sclerostin alone.” value on sclerostin is given as “++ (++ indicates an IC100 < 10 μM)”. Further, the IC100 (in assay [1] (setting [2]); with MC3T3 osteoblast cells (setting [3])) was less than 10 µM throughout.

With `COc1ccc2c3ccnc(C)c3n(CCN(C)C)c2c1` [Example 7, 2-(7-methoxy-1-methyl-9H-pyrido[3,4-b]indol-9-yl)-N,N-dimethyl ethanamine], on sclerostin, the “Sclerostin Inhibition Assay; improvement over sclerostin alone.” value is “++ (++ indicates an IC100 < 10 μM)”. Besides, the IC100 (in assay [1] (setting [2]); with MC3T3 osteoblast cells (setting [3])) was less than 10 µM throughout.

Turning to `Oc1ccc2c3ccnc(C(F)(F)F)c3n(CCN3CCOCC3)c2c1` [Example 26, 9-(2-morpholinoethyl)-1-(trifluoromethyl)-9H-pyrido[3,4-b]indol-7-ol], the “Sclerostin Inhibition Assay; improvement over sclerostin alone.” value at sclerostin is “++ (++ indicates an IC100 < 10 μM)”. The IC100 (in assay [1] (setting [2]); in the assay with MC3T3 osteoblast cells (setting [3])) was less than 10 µM throughout.

`COc1ccc2c3ccnc(C)c3n(CCN3CCNCC3)c2c1` [Example 16, 7-methoxy-1-methyl-9-(2-(piperazin-1-yl)ethyl)-9H-pyrido[3,4-b]indole]: at sclerostin, the “Sclerostin Inhibition Assay; improvement over sclerostin alone.” value was “++ (++ indicates an IC100 < 10 μM)”. Besides, the IC100 (in assay [1] (setting [2]); with MC3T3 osteoblast cells (setting [3])) was less than 10 µM in each case.

Turning to `COc1ccc2c(c1)[nH]c1c(C)nc(F)cc12` [Example 38, 3-fluoro-7-methoxy-1-methyl-9H-pyrido[3,4-b]indole], the “Sclerostin Inhibition Assay; improvement over sclerostin alone.” value on sclerostin is listed as “++ (++ indicates an IC100 < 10 μM)”. Also, the IC100 (in assay [1] (setting [2]); in the assay on MC3T3 osteoblast cells (setting [3])) was less than 10 µM each time.

For “sclerostin protein: SOST (Sclerostin) protein; antagonizes Wnt3a signaling and inhibits mineralization and OCN secretion in the assays”, the “Sclerostin Inhibition Assay; improvement over sclerostin alone.” value with sclerostin is recorded as “−”. In addition, the “effect on Wnt3a signaling” value with sclerostin (human embryonic cells, result in words) is “antagonized Wnt3a signaling”. Further, the “Sclerostin Inhibition of Mineralization; improvement over sclerostin alone.” value in assay [1] (setting [2]) is “−”. Besides, in assay [1] (setting [4]), the effect on mineralization entry is listed as “significant decrease in mineralization”. Moreover, the “OSTEOCALCIN (Bone Formation Marker)” value with MC3T3 osteoblast cells (setting [3]) was “−”. Moreover, in the assay with MC3T3 osteoblast cells (setting [4]), the “effect on OCN secretion” value is recorded as “nearly complete loss of OCN secretion”.

In the case of `COc1ccc2c(c1)[nH]c1c(C)nc(O)cc12` [Example 19, 7-methoxy-1-methyl-9H-pyrido[3,4-b]indol-3-ol], the “Sclerostin Inhibition Assay; improvement over sclerostin alone.” value at sclerostin is “++ (++ indicates an IC100 < 10 μM)”. The IC100 (in assay [1] (setting [2]); in the assay with MC3T3 osteoblast cells (setting [3])) was less than 10 µM throughout.

As for `CC1CN(CCn2c3cc(O)ccc3c3ccnc(C(F)(F)F)c32)CC(C)O1` (stereo not drawn) [Example 31, 9-(2-(2,6-dimethylmorpholino)ethyl)-1-(trifluoromethyl)-9H-pyrido[3,4-b]indol-7-ol], the “Sclerostin Inhibition Assay; improvement over sclerostin alone.” value at sclerostin was “++ (++ indicates an IC100 < 10 μM)”. The IC100 (in assay [1] (setting [2]); with MC3T3 osteoblast cells (setting [3])) was less than 10 µM each time.

In the case of `OCCN(CCO)CCn1c2cc(O)ccc2c2ccnc(C(F)(F)F)c21` [Example 36, 2,2′-((2-(7-hydroxy-1-(trifluoromethyl)-9H-pyrido[3,4-b]indol-9-yl)ethyl)azanediyl)diethanol], the “Sclerostin Inhibition Assay; improvement over sclerostin alone.” value at sclerostin was “+ (+ indicates an IC100 > 10 μM)”. Further, the IC100 (in assay [1] (setting [2]); in the assay with MC3T3 osteoblast cells (setting [3])) was greater than 10 µM each time.

In the case of `Cc1nccc2c1[nH]c1cc(OC(F)F)ccc12` [Example 45, 7-(difluoromethoxy)-1-methyl-9H-pyrido[3,4-b]indole], the “Sclerostin Inhibition Assay; improvement over sclerostin alone.” value at sclerostin was “++ (++ indicates an IC100 < 10 μM)”. Moreover, the IC100 (in assay [1] (setting [2]); with MC3T3 osteoblast cells (setting [3])) was less than 10 µM throughout.

Take `COc1ccc2c3ccnc(C(F)(F)F)c3n(CCN3CCOCC3C)c2c1` (stereo not drawn) [Example 29, 4-(2-(7-methoxy-1-(trifluoromethyl)-9H-pyrido[3,4-b]indol-9-yl)ethyl)-3-methylmorpholine]: on sclerostin, the “Sclerostin Inhibition Assay; improvement over sclerostin alone.” value is “++ (++ indicates an IC100 < 10 μM)”. The IC100 (in assay [1] (setting [2]); in the assay with MC3T3 osteoblast cells (setting [3])) was less than 10 µM each time.

As to `COc1ccc2c3ccnc(C(F)(F)F)c3n(CCN3CCCCC3)c2c1` [Example 33, 7-methoxy-9-(2-(piperidin-1-yl)ethyl)-1-(trifluoromethyl)-9H-pyrido[3,4-b]indole], at sclerostin, the “Sclerostin Inhibition Assay; improvement over sclerostin alone.” value is “++ (++ indicates an IC100 < 10 μM)”. The IC100 (in assay [1] (setting [2]); in the assay with MC3T3 osteoblast cells (setting [3])) was less than 10 µM throughout.

`CC(Cn1c2ccccc2c2ccccc21)N(C)C` (stereo not drawn) [Example 2, 1-(9H-carbazol-9-yl)-N,N-dimethylpropan-2-amine]: the “Sclerostin Inhibition Assay; improvement over sclerostin alone.” value at sclerostin is “+ (+ indicates an IC100 > 10 μM)”. In addition, the IC100 (in assay [1] (setting [2]); in the assay with MC3T3 osteoblast cells (setting [3])) was greater than 10 µM each time.

Consider `CC1COCCN1CCn1c2cc(O)ccc2c2ccnc(C(F)(F)F)c21` (stereo not drawn) [Example 30, 9-(2-(3-methylmorpholino)ethyl)-1-(trifluoromethyl)-9H-pyrido[3,4-b] indol-7-ol], for which the “Sclerostin Inhibition Assay; improvement over sclerostin alone.” value at sclerostin was “++ (++ indicates an IC100 < 10 μM)”. Moreover, the IC100 (in assay [1] (setting [2]); in the assay with MC3T3 osteoblast cells (setting [3])) was less than 10 µM each time.

`Cc1nccc2c1[nH]c1cc(OC3CC3)ccc12` [Example 42, 7-cyclopropoxy-1-methyl-9H-pyrido[3,4-b]indole]: the “Sclerostin Inhibition Assay; improvement over sclerostin alone.” value at sclerostin is listed as “+ (+ indicates an IC100 > 10 μM)”. For the same molecule, the IC100 (in assay [1] (setting [2]); in the assay on MC3T3 osteoblast cells (setting [3])) was greater than 10 µM each time.
